Assay results taken from US20060025566A1, “Macrocyclic modulators of the ghrelin receptor” (Tranzyme Pharma Inc., priority 2003, published 2006).
pEC50, pKi: −log10 of the molar value. Where two headings read alike, the source gives them in different places.

What was measured:
[1] = molecular target: T1, human growth hormone secretagogue receptor (hGHS-R1a) (Homo sapiens, UniProt Q92847); assay: Competitive radioligand binding assay (ghrelin receptor), [125I]-ghrelin displacement on GHS-R/HEK 293 membranes
T1 construct: purchased PerkinElmer BioSignal #RBHGHSM, lot#1887; host or cells: HEK-293, stably transfected (membranes)
T1 sequence (Q92847 whole entry): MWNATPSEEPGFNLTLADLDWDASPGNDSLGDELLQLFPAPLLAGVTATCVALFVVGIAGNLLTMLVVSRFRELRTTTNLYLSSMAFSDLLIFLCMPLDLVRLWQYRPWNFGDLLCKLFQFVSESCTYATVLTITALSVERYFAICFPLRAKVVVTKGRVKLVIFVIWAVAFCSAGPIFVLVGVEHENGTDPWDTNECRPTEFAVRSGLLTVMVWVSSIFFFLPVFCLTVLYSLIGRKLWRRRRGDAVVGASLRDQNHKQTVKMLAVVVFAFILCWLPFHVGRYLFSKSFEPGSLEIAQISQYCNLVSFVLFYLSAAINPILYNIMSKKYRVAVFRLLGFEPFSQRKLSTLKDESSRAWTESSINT

[2] = molecular target: human ghrelin receptor (hGHS-R1a) (Homo sapiens, UniProt Q92847); assay: Aequorin functional assay (ghrelin receptor), CHO-K1 cells co-expressing Gα16 and aequorin; format: cell-based; conditions: functional (agonist) activity, standard method; TFA salts unless otherwise noted
Chain of human ghrelin receptor (hGHS-R1a) (Q92847 whole entry): as above
Text: Coelenterazine (Molecular Probes, Leiden, The Netherlands). […] Compound Handling
• 1. […] Key Aspects of Method • 1. […] Results

[3] = molecular target: motilin receptor (Homo sapiens, UniProt O43193); assay: Selectivity for the ghrelin receptor versus the motilin receptor; format: binding
Chain of motilin receptor (O43193 whole entry): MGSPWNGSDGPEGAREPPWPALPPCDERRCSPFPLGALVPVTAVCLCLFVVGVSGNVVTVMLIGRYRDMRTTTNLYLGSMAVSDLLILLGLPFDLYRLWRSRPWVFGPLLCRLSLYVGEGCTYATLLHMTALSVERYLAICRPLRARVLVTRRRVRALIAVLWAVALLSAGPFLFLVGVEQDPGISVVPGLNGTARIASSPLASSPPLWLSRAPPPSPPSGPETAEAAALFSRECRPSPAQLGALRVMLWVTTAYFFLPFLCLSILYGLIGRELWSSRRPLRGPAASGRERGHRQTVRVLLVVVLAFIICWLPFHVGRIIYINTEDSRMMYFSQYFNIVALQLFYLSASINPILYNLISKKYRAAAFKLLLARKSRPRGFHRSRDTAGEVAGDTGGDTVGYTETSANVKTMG
Text: The level of agonist activity and selectivity for representative compounds of the invention are shown below in Table 4.

[4] = [125I]-ghrelin competition, GHS-R/HEK 293 membranes, Table 3A, read-out: Binding Activity at the Human Ghrelin Receptor
[5] = binding activity, standard method, TFA salts unless otherwise noted, read-out: Ki
[6] = binding activity at the human ghrelin receptor, [125I]-ghrelin competition, GHS-R/HEK 293 membranes, read-out: Ki
[7] = binding activity at the human ghrelin receptor, [125I]-ghrelin displacement, read-out: Ki
[8] = second table titled 3C (compounds 435-449), human ghrelin receptor, read-out: Ki

CCC(C)C1NCc2ccccc2CCCCNC(=O)C(Cc2ccccc2)NC(=O)C(C)N(C)C1=O (single isomer, unassigned) [194a]
pKi [1, 4]: 6.00 to 7.00
pKi [1, 5]: 6.00 to 7.00
pEC50 [2]: 6.00 to 7.00

CC(C)C[C@@H]1NCCOc2ccccc2C=CCNC(=O)[C@H](Cc2ccccc2)NC(=O)C2(CCCC2)NC1=O (stereo in doubt) [Compound 8]
pKi [1, 6]: 7.00 to 8.00
pKi [1, 5]: 7.00 to 8.00
pEC50 [2]: 7.00 to 9.00

CC(C)C[C@@H]1NCCOc2ccccc2C=CCNC(=O)[C@H](Cc2ccc(Cl)cc2)NC(=O)C2(CCCC2)NC1=O (stereo in doubt) [compound 153]
pKi [1, 6]: 7.00 to 8.00
pKi [1, 5]: 7.00 to 8.00
pEC50 [2]: 7.00 to 9.00

CC(C)C[C@@H]1NCCOc2ccccc2C=CCNC(=O)[C@H](Cc2ccc(F)cc2)NC(=O)C2(CCCC2)NC1=O (stereo in doubt) [compound 154]
pKi [1, 6]: 7.00 to 8.00
pKi [1, 5]: 7.00 to 8.00
pEC50 [2]: 7.00 to 9.00

CC1(C)NC(=O)C2(CCCC2)NCCOc2ccccc2C=CCNC(=O)[C@H](Cc2cccc(Cl)c2)NC1=O (stereo in doubt) [compound 334]
pKi ([1]; Table 3C (compounds 18, 334-397), human ghrelin receptor, read-out: Ki): 7.00 to 8.00
pKi [1, 5]: 7.00 to 8.00
pEC50 [2]: 7.00 to 9.00

CCCCC1NCCOc2ccccc2CCCNC(=O)C(Cc2ccccc2)NC(=O)CN(C)C1=O (stereo not drawn) [Compound 1]
Selectivity [3]: 142/1

CC(C)[C@@H]1NCCOc2ccccc2CCCNC(=O)[C@@H](Cc2ccccc2)NC(=O)CN(C)C1=O [Compound 3]
pKi [1, 6]: 6.00 to 7.00
pKi [1, 5]: 6.00 to 7.00
pEC50 [2]: 6.00 to 7.00

CCC[C@@H]1NCCOc2ccccc2CCCNC(=O)[C@@H](Cc2c[nH]c3ccccc23)NC(=O)CN(C)C1=O [Compound 6]
pKi [1, 6]: 6.00 to 7.00
pKi [1, 5]: 6.00 to 7.00
pEC50 [2]: 7.00 to 9.00

CC(C)[C@@H]1NCCOc2ccccc2CCCNC(=O)[C@H](Cc2ccccc2)NC(=O)C2(CCCC2)NC1=O [Compound 9]
pKi [1, 6]: 6.00 to 7.00
pKi [1, 5]: 6.00 to 7.00
pEC50 [2]: 6.00 to 7.00

CC[C@H](C)[C@@H]1NCCOc2ccccc2CCCNC(=O)[C@@H](Cc2ccccc2)NC(=O)[C@@H](C)NC1=O [compound 2]
pKi [1, 6]: 6.00 to 7.00
pKi [1, 5]: 6.00 to 7.00
pEC50 [2]: 6.00 to 7.00

CCC[C@@H]1NCCOc2ccccc2CCCNC(=O)[C@@H](Cc2ccccc2)NC(=O)CN(CC)C1=O [compound 5]
pKi [1, 6]: 6.00 to 7.00
pEC50 [2]: 6.00 to 7.00

CCCC1NCCOc2ccccc2CCCNC(=O)C(Cc2ccc(O)cc2)NC(=O)CN(C)C1=O (stereo not drawn) [compound 7]
Selectivity [3]: >100/1

CC[C@H](C)[C@@H]1NCCOc2ccccc2CCCNC(=O)[C@@H](Cc2ccccc2Cl)NC(=O)[C@@H](C)N(C)C1=O [compound 23]
pKi [1, 6]: 8.00 to 10.00
pKi [1, 5]: 8.00 to 10.00
pEC50 [2]: 7.00 to 9.00

CC[C@H](C)[C@@H]1NCCOc2ccccc2CCCNC(=O)[C@@H](Cc2cccc3ccccc23)NC(=O)[C@@H](C)N(C)C1=O [compound 30]
pKi [1, 6]: 8.00 to 10.00
pKi [1, 5]: 8.00 to 10.00
pEC50 [2]: 7.00 to 9.00

CCC(C)C1NCCOc2ccccc2CCCNC(=O)C(Cc2cccs2)NC(=O)C(C)N(C)C1=O (stereo not drawn) [compound 34]
Selectivity [3]: >1000/1

CC(C)C[C@@H]1NCCOc2ccccc2CCCNC(=O)[C@@H](Cc2ccccc2)NC(=O)C2(CCCC2)NC1=O [compound 97]
pKi [1, 6]: 6.00 to 7.00
pKi [1, 5]: 7.00 to 8.00
pEC50 [2]: 6.00 to 7.00

CC(C)C[C@@H]1NCCOc2ccccc2CCCNC(=O)[C@H](Cc2ccccc2)NC(=O)C2(CC2)NC1=O [compound 111]
pKi [1, 6]: 6.00 to 7.00
pKi [1, 5]: 7.00 to 8.00
pEC50 [2]: 6.00 to 7.00

CC(C)CC1NCCOc2ccccc2CCCNC(=O)C(Cc2ccccc2)NC(=O)C2(CCCC2)NC1=O (stereo not drawn) [compound 113]
pKi [1, 6]: 6.00 to 7.00
pKi [1, 5]: 7.00 to 8.00
pEC50 [2]: 6.00 to 7.00

CC(C)C[C@@H]1NCCOc2ccccc2/C=C/CNC(=O)C2(CCCC2)NC(=O)C2(CCCC2)NC1=O [compound 168]
pKi [1, 4]: 6.00 to 7.00
pKi [1, 5]: 6.00 to 7.00
pEC50 [2]: < 6.00

C[C@@H]1C(=O)N[C@H](Cc2ccccc2)C(=O)NCCCc2ccccc2OCCN2CCCC[C@H]2C(=O)N1C [compound 226]
pKi [1, 5]: 7.00 to 8.00
pEC50 [2]: < 6.00

CC1C(=O)NC(Cc2ccc(Cl)cc2)C(=O)NCCCc2ccccc2OCCNC(C2CC2)C(=O)N1C (stereo not drawn) [compound 299]
pKi [1, 7]: 8.00 to 10.00
pKi [1, 5]: 8.00 to 10.00
pEC50 [2]: 7.00 to 9.00

C[C@@H]1C(=O)N[C@H](Cc2ccc(F)cc2)C(=O)NCCCc2ccccc2OCCN[C@@H](C2CC2)C(=O)N1C [compound 309]
pKi [1, 7]: 8.00 to 10.00

C[C@@H]1C(=O)N[C@H](Cc2ccccc2F)C(=O)NCCCc2ccccc2OCCN[C@@H](C2CC2)C(=O)N1C [compound 312]
pKi [1, 7]: 8.00 to 10.00

CC1C(=O)NC(Cc2ccc(Cl)c(Cl)c2)C(=O)NCCCc2ccccc2OCCNC(C2CC2)C(=O)N1C (stereo not drawn) [compound 315]
pKi [1, 7]: 8.00 to 10.00

C[C@@H]1C(=O)N[C@H](Cc2ccc(F)c(F)c2)C(=O)NCCCc2ccccc2OCCN[C@@H](C2CC2)C(=O)N1C [compound 316]
pKi [1, 7]: 7.00 to 8.00

C[C@@H]1C(=O)N[C@H](Cc2cc(F)cc(F)c2)C(=O)NCCCc2ccccc2OCCN[C@@H](C2CC2)C(=O)N1C [compound 317]
pKi [1, 7]: 7.00 to 8.00

C[C@@H]1C(=O)N[C@H](Cc2ccc(Br)cc2)C(=O)NCCCc2ccccc2OCCN[C@@H](C2CC2)C(=O)N1C [compound 319]
pKi [1, 7]: 8.00 to 10.00

C[C@@H]1C(=O)N[C@H](Cc2ccc(I)cc2)C(=O)NCCCc2ccccc2OCCN[C@@H](C2CC2)C(=O)N1C [compound 320]
pKi [1, 7]: 8.00 to 10.00

C[C@@H]1C(=O)N[C@H](Cc2ccc(C#N)cc2)C(=O)NCCCc2ccccc2OCCN[C@@H](C2CC2)C(=O)N1C [compound 321]
pKi [1, 7]: 7.00 to 8.00

CC1C(=O)NC(Cc2ccc(C(F)(F)F)cc2)C(=O)NCCCc2ccccc2OCCNC(C2CC2)C(=O)N1C (stereo not drawn) [compound 322]
pKi [1, 7]: 8.00 to 10.00
pKi [1, 5]: 8.00 to 10.00
pEC50 [2]: 7.00 to 9.00

CCC(C)C1NCCOc2ccccc2C=CCNC(=O)C(Cc2cccc(F)c2)NC(=O)C2(CCCC2)NC1=O (stereo not drawn) [compound 325]
pKi [1, 7]: 7.00 to 8.00

CCC(C)C1NCCOc2ccccc2C=CCNC(=O)C(Cc2cccc(OC)c2)NC(=O)C2(CCCC2)NC1=O (stereo not drawn) [compound 328]
pKi [1, 7]: 7.00 to 8.00

COC[C@@H]1NCCOc2ccccc2CCCNC(=O)[C@@H](Cc2ccc(F)cc2)NC(=O)[C@@H](C)N(C)C1=O [compound 336]
pKi [1, 7]: 6.00 to 7.00

C[C@@H]1C(=O)N[C@H](Cc2ccc(F)cc2)C(=O)NCCCc2ccccc2OCCN[C@@H](CN)C(=O)N1C [compound 337]
pKi [1, 7]: 6.00 to 7.00

C[C@@H]1C(=O)N[C@H](Cc2ccc(F)cc2)C(=O)NCCCc2ccccc2OCCN[C@@H](CCN)C(=O)N1C [compound 338]
pKi [1, 7]: 6.00 to 7.00

C[C@@H]1C(=O)N[C@H](Cc2ccc(F)cc2)C(=O)NCCCc2ccccc2OCCN[C@@H](CCCN)C(=O)N1C [compound 339]
pKi [1, 7]: 6.00 to 7.00

CSCC[C@@H]1NCCOc2ccccc2CCCNC(=O)[C@@H](Cc2ccc(F)cc2)NC(=O)[C@@H](C)N(C)C1=O [compound 340]
pKi [1, 7]: 7.00 to 8.00

COc1ccccc1C[C@@H]1NCCOc2ccccc2/C=C/CNC(=O)[C@H](Cc2cccc(Cl)c2)NC(=O)C2(CCCC2)NC1=O [compound 343]
pKi [1, 7]: 6.00 to 7.00

O=C1NC/C=C/c2ccccc2OCCN[C@@H](C2CC2)C(=O)NC2(CCCC2)C(=O)N[C@H]1Cc1cccc(Cl)c1 [compound 346]
pKi [1, 7]: 7.00 to 8.00
pKi [1, 5]: 7.00 to 8.00
pEC50 [2]: 7.00 to 9.00

CCC(C)C1NCCOc2ccccc2C=CCNC(=O)C(COCc2ccccc2)NC(=O)C2(CCCC2)NC1=O (stereo not drawn) [compound 347]
pKi [1, 7]: 6.00 to 7.00

C[C@@H]1C(=O)N[C@H](Cc2cc(F)c(F)c(F)c2)C(=O)NCCCc2ccccc2OCCN[C@@H](C2CC2)C(=O)N1C [compound 391]
pKi [1, 7]: 8.00 to 10.00

CC1C(=O)NC(Cc2ccc(F)cc2)C(=O)NCC=Cc2ccccc2OCCNC(C2CC2)C(=O)N1C (stereo not drawn) [compound 401]
pKi [1, 7]: 8.00 to 10.00

O=C1NC/C=C/c2ccccc2OCCNC2(CCCC2)C(=O)NC2(CCCC2)C(=O)N[C@H]1Cc1cccc(Cl)c1 [compound 437]
pKi [1, 8]: 8.00 to 10.00

CCC(C)C1NCCOc2ccccc2C=CCNC(=O)C(Cc2ccc(C(=O)O)cc2)NC(=O)C2(CCCC2)NC1=O (stereo not drawn) [compound 441]
pKi [1, 8]: 5.00 to 6.00

CCC(C)C1NCCOc2ccccc2CCCNC(=O)C(Cc2ccc(O)cc2)NC(=O)C(C)N(C)C1=O (stereo not drawn) [compound 445]
pKi [1, 5]: 7.00 to 8.00
pKi [1, 8]: 7.00 to 8.00
pEC50 [2]: 7.00 to 9.00

CCC(C)C1NCCOc2ncccc2CCCNC(=O)C(Cc2cccc(Cl)c2)NC(=O)C2(CCCC2)NC1=O (stereo not drawn) [compound 449]
pKi [1, 8]: 5.00 to 6.00

C[C@@H]1C(=O)N[C@H](Cc2ccccc2)C(=O)NCCCc2ccccc2OCCN2CCCC[C@H]2C(=O)N1C [drawing 1187]
pKi ([1]; Table 3E, human ghrelin receptor, read-out: Ki): 7.00 to 8.00
